From patent publication US20220267350A1, “ADENOSINE RECEPTOR ANTAGONIST” (XIAMEN BIOTIME BIOTECHNOLOGY CO., LTD., priority 2019, published 2022) come the findings set out here.

In assay [1] the target is A2A receptor (Homo sapiens, UniProt P29274). Nature of the assay: A2A receptor antagonist functional assay (cAMP, NECA at EC80). It is filed as cell-based. Particulars: A2A cell line (PerkinElmer ES-011-C); 5'-N-ethylcarboxamidoadenosine at EC80; cAMP readout; read-out: A2A Antagonistic function IC50. On the procedure:
(§1) The A2A cell line was derived from PerkinElmer (Product ID: ES-011-C); the A2B cell line was derived from PerkinElmer (Product ID: ES-013-C). The experimental procedure was referred to ACS Medicinal Chemistry Letters (2011) 2, 213-218; the specific test was completed by Pharmaron Beijing Co., Ltd. with the following steps: 10 nL of compound stock in DMSO (10 mM) followed by 10 μL of A2A or A2B cell suspension (30000 cells/mL) were transferred to assay wells of a 384-well plate at room temperature and incubated for 20 minutes at room temperature. The corresponding amount of 5′-N-ethylcarboxamidoadenosine at EC80 activation concentration was transferred to each test well, and incubated for another 30 minutes at 37° C., 5% CO2, 95% humidity, then Eu-cAMP tracer working solution and Ulight-anti-cAMP working solution were added to the cell culture plate at 5 uL/well in sequence, and the cell plate fluorescence was read with Envision (excitation wavelength: 320 nm, emission wavelength: 665 nm and 615 nm). The corresponding inhibition rate in each well was obtained according to the following formula, and a sigmoidal dose-inhibition rate curve was plotted using a non-linear regression model to calculate the IC50 value.

Assay [2] has as its target T1, A2B receptor (Homo sapiens, UniProt P29275).
T1 sequence (P29275 1-332): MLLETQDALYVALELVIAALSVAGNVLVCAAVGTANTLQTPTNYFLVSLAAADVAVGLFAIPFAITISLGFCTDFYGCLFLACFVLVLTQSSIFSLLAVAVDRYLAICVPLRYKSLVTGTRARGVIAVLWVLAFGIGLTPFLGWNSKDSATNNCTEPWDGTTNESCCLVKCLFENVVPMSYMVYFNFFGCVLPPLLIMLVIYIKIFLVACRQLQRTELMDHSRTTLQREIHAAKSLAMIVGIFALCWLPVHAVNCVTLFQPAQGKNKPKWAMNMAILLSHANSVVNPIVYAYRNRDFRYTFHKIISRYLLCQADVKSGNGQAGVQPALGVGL
Nature of the assay: A2B receptor antagonist functional assay (cAMP, NECA at EC80). Particulars: A2B cell line (PerkinElmer ES-013-C); 5'-N-ethylcarboxamidoadenosine at EC80; cAMP readout; read-out: A2B Antagonistic function IC50. The assay is classed as cell-based. On the procedure:
as §1

Chain of A2A receptor (P29274 whole entry): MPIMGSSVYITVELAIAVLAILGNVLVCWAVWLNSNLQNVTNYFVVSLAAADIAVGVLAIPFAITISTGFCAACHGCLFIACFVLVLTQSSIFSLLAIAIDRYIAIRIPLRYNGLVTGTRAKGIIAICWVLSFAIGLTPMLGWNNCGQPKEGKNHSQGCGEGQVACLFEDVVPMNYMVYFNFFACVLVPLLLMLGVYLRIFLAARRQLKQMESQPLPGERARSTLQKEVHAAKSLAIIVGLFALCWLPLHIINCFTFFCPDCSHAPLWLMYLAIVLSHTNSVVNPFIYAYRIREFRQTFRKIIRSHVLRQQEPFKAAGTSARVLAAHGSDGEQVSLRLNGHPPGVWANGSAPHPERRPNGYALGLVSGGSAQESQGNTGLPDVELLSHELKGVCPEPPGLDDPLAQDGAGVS

In general, IC50 refers to the point on the concentration scale where inhibition reaches its midpoint. As to `COc1cccc(Cc2noc3c(-c4ccc(C)o4)nc(N)nc23)c1` [Compound 1], the IC50 was 3.8 nM in assay [1] and 149 nM in assay [2]. In the case of `Cc1ccc(-c2nc(N)nc3c(Cc4ccc(F)cc4)noc23)o1` [Compound 2], the IC50 in assay [1] is 7 nM.

As to `COc1ccc(Cc2noc3c(-c4ccc(C)o4)nc(N)nc23)cc1` [Compound 3], the IC50 in assay [1] turned out to be 120 nM. Same read-out and setting: next, `COc1ccccc1Cc1noc2c(-c3ccc(C)o3)nc(N)nc12` [Compound 4]: 6.9 nM.

As to `Cc1ccc(-c2nc(N)nc3c(Cc4ccc(Cl)cc4)noc23)o1` [Compound 5], in assay [1], the IC50 is 31.8 nM.

Consider `Cc1ccc(-c2nc(N)nc3c(Cc4cccc(Cl)c4)noc23)o1` [Compound 6], for which the IC50 in assay [1] amounted to 3.7 nM. Turning to `Cc1ccc(-c2nc(N)nc3c(Cc4cccc(O)c4)noc23)o1` [Compound 7], the IC50 in assay [1] and in assay [2] was 11 nM each time. On to `Cc1ccc(-c2nc(N)nc3c(Cc4ccc(O)cc4)noc23)o1` [Compound 8], for which the 50% inhibitory concentration (IC50) in assay [1] turned out to be 80 nM. The same measure, in the same setting: next, `Cc1ccc(-c2nc(N)nc3c(Cc4ccccc4O)noc23)o1` [Compound 9]: 10.2 nM.
